Consider five compounds from US20060110439A1, “Dermal delivery of n-methyl-glucamine and n-methyl-glucamine compounds” (Dynamis Therapeutics, Inc., priority 2004, published 2006).

The test system of test [1] is 3DG. To be noted: in vivo; cited from earlier work.
In test [2] the test system is 3DG-dependent crosslinking of collagen type I. The test is described as follows: Inhibition of 3DG collagen crosslinking in vitro (CnBr digest, SDS-PAGE). It is filed as biochemical. To be noted: calf skin collagen type 1, 5 mM 3DG plus 10 mM arginine, 24 hr. Here is the method: The direct inactivation of 3DG is a method of reducing 3DG levels. Calf skin collagen type 1 (1.3 mg) was incubated with no addition, with 5 mM 3DG, or with 5 mM 3DG plus 10 mM of arginine for 24 hr. Each sample was digested with cyanogen bromide (CnBr) to create peptide fragments that are visualized by sodium-dodecyl sulfate-polyacrylamide gel electrophoresis (SDS-PAGE) (FIG. 4). Lane 2 is collagen alone; lane 3 is collagen plus 5 mM 3DG; and lane 4 is collagen plus 5 mM 3DG plus 10 mM arginine. Lanes 5, 6, and 7 are the same, but with twice as much sample applied.
Crosslinking was assessed by visually determining the amount of high molecular weight protein remaining near the origin of the resolving gel, as compared to the amount that migrates into the gel matrix. The more crosslinking that exists, the more material there is near the origin of the gel. The lanes containing collagen with 3DG (#3, #6) have more material residing at the origin than those containing collagen alone (#2, #5).

In the case of `N[C@@H](CCCCNC[C@H](O)[C@@H](O)[C@H](O)[C@H](O)CO)C(=O)O` [sorbitollysine], in test [1], the “urinary or plasma 3DG” value is on record as “reduced”.

With `N[C@@H](CCCCNC[C@@H](O)[C@@H](O)[C@H](O)[C@H](O)CO)C(=O)O` [mannitollysine], the “urinary or plasma 3DG” value in test [1] is listed as “reduced”.

Take `N=C(N)NCCC[C@H](N)C(=O)O` [arginine]: the “3DG crosslinking of collagen (high molecular weight protein near gel origin, visual)” value in test [2] was “able to inactivate 3DG and prevent it from crosslinking collagen”.

On to `CNC[C@H](O)[C@@H](O)[C@H](O)[C@H](O)CO` [meglumine, N-methyl glucamine], for which the “urinary or plasma 3DG” value in test [1] is listed as “reduced”.

`N[C@@H](CCCCNC[C@H](O)[C@@H](O)[C@@H](O)[C@H](O)CO)C(=O)O` [galactitollysine]: the “urinary or plasma 3DG” value in test [1] is “reduced”.
